The results in this text go back to patent US20260364057A1, “AMIDE COMPOUND, AND COMPOSITION AND USE THEREOF” (SIMCERE ZAIMING PHARMACEUTICAL CO., LTD., priority 2022, published 2026).

In the assay the target is T1, Human KIF18A (1-376aa) (Homo sapiens, UniProt Q8NI77).
T1 construct: Human KIF18A (1-376aa) protease used in the experiments; purchased Shanghai Panchao Biotechnology Co., Ltd
T1 sequence (Q8NI77 1-376): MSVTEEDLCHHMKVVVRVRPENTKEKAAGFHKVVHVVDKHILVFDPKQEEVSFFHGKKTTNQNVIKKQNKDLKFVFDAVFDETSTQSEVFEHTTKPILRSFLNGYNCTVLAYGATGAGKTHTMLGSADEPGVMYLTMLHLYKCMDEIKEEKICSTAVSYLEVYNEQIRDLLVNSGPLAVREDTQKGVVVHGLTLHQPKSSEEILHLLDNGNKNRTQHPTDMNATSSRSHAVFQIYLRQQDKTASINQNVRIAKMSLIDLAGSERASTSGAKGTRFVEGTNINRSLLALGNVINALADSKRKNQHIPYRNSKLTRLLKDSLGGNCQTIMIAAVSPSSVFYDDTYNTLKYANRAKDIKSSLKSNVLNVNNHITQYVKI
Nature of the assay: KIF18A enzyme activity assay (ADP-Glo). Format: biochemical. Particulars: microtubule 50 μg/mL, ATP (Km 70 μM), room temperature, 15 min, read-out: KIF18A inhibitory activity IC50. On the procedure: Test Example 1: KIF18A Enzyme Activity Assay
Based on the ADP-Glo™ Kinase Assay, the ADP amount generated in the reaction was detected to reflect the enzyme activity of KIF18A.
Human KIF18A (1-376aa) […] used in the experiments, expressed by Shanghai Panchao Biotechnology Co., Ltd., was stored at −80 °C (no more than 5 freeze-thaw cycles).
The assay kit (ADP-Glo™ Kinase Assay) was purchased from Promega (Cat. No. V9101) and stored at −30 °C. The kit detects the enzyme activity by measuring ADP generated in enzyme reaction. The KIF18A enzyme and ATP generate ADP. The remaining ATP in this reaction is consumed by the ADP-Glo reagent, while the ADP generated by the KIF18A enzyme reaction is converted back to ATP by the assay reagent. The ATP then reacts with luciferin in the presence of Ultra-Glo™ luciferase, producing luminescence. The luminescent signal is positively correlated with the activity of the KIF18A enzyme.
Compounds were each subjected to 3-fold serial dilution starting from 10 μM to obtain 10 concentration points. The compounds and pure DMSO (control) were pipetted into wells of a 384-well plate using an Echo instrument, and the total volume of compound and DMSO was 100 nL; sample concentrations of gradient dilution were obtained by the instrument based on different ratios. Preparation of a KIF18A enzyme reaction buffer: […], 10 mM MgCl2, 0.01% Pluronic F-68, 1 μM Taxol, and 50 μg/mL Microtubule. KIF18A and the enzyme reaction buffer were mixed, and then the mixed solution was added to the 384-well plate and incubated at room temperature for 15 min. ATP (Km 70 μM) was then added to the mixed solution, and the mixed solution was incubated at room temperature for 15 min. 10 μL of ADP-Glo™ Reagent was well mixed with 10 μL of the mixed solution, and the mixture was incubated at room temperature for 40 min. Finally, 20 μL of ADP-Glo™ Detection Reagent was added, and the mixture was incubated at room temperature for 30 min. The chemiluminescent signal in each well was measured using an Envision plate reader (PerkinElmer, emission wavelength: 400-700 nm). In the experiment, 1 column of wells with no compound and no enzyme (chemiluminescence value was taken as [RLU]background) and 1 column of wells with enzyme but no compound (chemiluminescence value was taken as [RLU]enzyme) were provided. The chemiluminescence value of the compound adding group was taken as [RLU]cpd. The inhibition rate of the compound on […] was calculated according to the following equation: inhibition rate (%)=([RLU]enzyme−[RLU]cpd)/([RLU]enzyme−[RLU]background)×100%, and the inhibitory activity IC50 value of the compound on the enzyme activity was calculated using a four-parameter Logistic Model method. In the following equation, x represents the logarithmic form of the concentration of compound, and f (x) represents an effect value (inhibition rate of enzyme activity at the concentration): F(x)=(A+((B−A)/(1+((C/x)^D)))). A. B, C, and D are four parameters.
For the compound `Cn1c(N2CCC(F)(F)CC2)nc(NC(=O)c2ccc(NS(=O)(=O)CCO)cc2N2CCC3(CC2)CC3)cc1=O` [Compound 2], the IC50 is under 200 nM.

As to `CN1CCc2ccc(NC(=O)c3ccc(NS(=O)(=O)CCO)cc3N3CCC4(CC3)CC4)nc21` [Compound 16], the IC50 was under 200 nM.

As to `O=C(Nc1cccc2c1nc1n2CC2(CC2)C1)c1ccc(NS(=O)(=O)CCO)cc1N1CCC2(CC1)CC2` [Compound 84], the IC50 is under 500 nM.

Take `CC(C)n1ccc2c(NC(=O)c3ccc(NS(=O)(=O)CCO)cc3N3CCC4(CC3)CC4)ccnc21` [Compound 6]: the 50% inhibitory concentration (IC50) was under 200 nM.

Consider `Cc1cc(NC(=O)c2ccc(NS(=O)(=O)CCO)cc2N2CCC3(CC2)CC3)c2nc3n(c2n1)CCCCC3` [Compound 79], for which the concentration for half-maximal inhibition (IC50) was under 200 nM.

Regarding `COC1CCn2c1nc1c(NC(=O)c3ccc(NS(=O)(=O)CCO)cc3N3CCC4(CC3)CC4)cccc12` (centres unmarked) [Compound 63], the concentration for half-maximal inhibition (IC50) was under 200 nM.

Turning to `O=C(Nc1cccc2c1nc1n2CC(F)(F)CC1)c1ccc(NS(=O)(=O)CCO)cc1N1CCC2(CC1)CC2` [Compound 25], the half-maximal inhibitory concentration (IC50) was under 200 nM.

Consider `CC(C)c1cnc2c(NC(=O)c3ccc(NS(=O)(=O)CCO)cc3N3CCC4(CC3)CC4)snc2c1` [Compound 57], for which the IC50 was under 200 nM.

For `O=C(Nc1snc2cc3c(nc12)CCCC3)c1ccc(NS(=O)(=O)CCO)cc1N1CCC2(CC1)CC2` [Compound 52], the half-maximal inhibitory concentration (IC50) is under 200 nM.

As for `Cc1cnc2c(NC(=O)c3ccc(NS(=O)(=O)CCO)cc3N3CCC4(CC3)CC4)snc2c1` [Compound 32], the IC50 was under 200 nM.

For the compound `O=C(Nc1cccc2c1nc1n2C2CC2C1)c1ccc(NS(=O)(=O)CCO)cc1N1CCC2(CC1)CC2` (centres unmarked) [Compound 90], the IC50 is under 200 nM.

Take `O=C(Nc1cccc2c1nc1n2C2CC(C1)C2)c1ccc(NS(=O)(=O)CCO)cc1N1CCC2(CC1)CC2` [Compound 46]: the IC50 is under 200 nM.

Take `Cc1cc(NC(=O)c2ccc(NS(=O)(=O)CCO)cc2N2CCC3(CC2)CC3)c2nc3c(n2c1)CCCC3` [Compound 18]: the IC50 is under 200 nM.

For `O=C(Nc1cncc2c1nc1n2CCCC1)c1ccc(NS(=O)(=O)CCO)cc1N1CCC2(CC1)CC2` [Compound 43], the 50% inhibitory concentration (IC50) is under 500 nM.

On to `CC1(C)C2Cn3c(nc4c(NC(=O)c5ccc(NS(=O)(=O)CCO)cc5N5CCC6(CC5)CC6)cccc43)C21` (centres unmarked) [Compound 95], for which the IC50 is under 200 nM.

On to `Cn1ccc2ccc(NC(=O)c3ccc(NS(=O)(=O)CCO)cc3N3CCC4(CC3)CC4)nc21` [Compound 15], for which the half-maximal inhibitory concentration (IC50) is under 200 nM.

Take `O=C(Nc1cccc2c1nc1n2CCC2(CC2)C1)c1ccc(NS(=O)(=O)CCO)cc1N1CCC2(CC1)CC2` [Compound 91]: the IC50 was under 200 nM.

As for `O=C(Nc1cccc2c1nc1n2CCC1)c1ccc(NS(=O)(=O)CCO)cc1N1CCC2(CC1)CC2` [Compound 23], the concentration for half-maximal inhibition (IC50) was under 200 nM.

`O=C(Nc1ccnc2c1OCC1CCCCN21)c1ccc(NS(=O)(=O)CCO)cc1N1CCC2(CC1)CC2` (centres unmarked) [Compound 10]: the IC50 was under 200 nM.

For the compound `O=C(Nc1cccc2c1nc1n2CCC12CC2)c1ccc(NS(=O)(=O)CCO)cc1N1CCC2(CC1)CC2` [Compound 85], the 50% inhibitory concentration (IC50) was under 500 nM.

Regarding `O=C(Nc1cc2nccn2c(N2CCC3(CC2)CC3)n1)c1ccc(NS(=O)(=O)CCO)cc1N1CCC2(CC1)CC2` [Compound 20], the IC50 is under 200 nM.

For `O=C(Nc1cc2nccn2c(OCCC(F)(F)F)n1)c1ccc(NS(=O)(=O)CCO)cc1N1CCC2(CC1)CC2` [Compound 13], the IC50 is under 200 nM.

`O=C(Nc1cccc2c1nc1n2C2CC2CC1)c1ccc(NS(=O)(=O)CCO)cc1N1CCC2(CC1)CC2` (centres unmarked) [Compound 69]: the IC50 was under 200 nM.

Turning to `COC1Cc2nc3c(NC(=O)c4ccc(NS(=O)(=O)CCO)cc4N4CCC5(CC4)CC5)cccc3n2C1` (centres unmarked) [Compound 62], the half-inhibitory concentration (IC50) was under 200 nM.

As for `CN1CCn2c(nc3c(NC(=O)c4ccc(NS(=O)(=O)CCO)cc4N4CCC5(CC4)CC5)cccc32)C1` [Compound 89], the concentration for half-maximal inhibition (IC50) was under 500 nM.

With `O=C(Nc1ccnc2c1nc1n2CCCC1)c1ccc(NS(=O)(=O)CCO)cc1N1CCC2(CC1)CC2` [Compound 36], the half-maximal inhibitory concentration (IC50) was under 200 nM.
